{"source": "paper PMC8571282", "about": "(Nature Communications, 2021)", "key": {"[1]": {"system": "SARS-CoV-2 WA1/2020", "format": "in vivo, ferret (Mustela putorius furo)", "settings": "for Transform of Nasal Lavage RNA copies, Mean 2 (treated group) / Transform of Nasal Lavage RNA copies, Mean Diff. (Vehicle vs. treated): Fig 3f, Row 5 (time)"}, "[2]": {"system": "“M2” primary HAE cells", "assay": "Cytotoxicity assay (PrestoBlue), “M2” HAE", "settings": "72 h; for % cell viability: M2 HAE"}, "[3]": {"system": "SARS-CoV-2 VOC γ (BZ/2021)", "format": "in vivo, ferret (Mustela putorius furo)"}, "[4]": {"assay": "in vitro", "settings": "hamster, % cell viability, 72 h"}, "[5]": {"settings": "Fig 4b, […], 10 mg/kg b.i.d., Time 0.0"}, "[6]": {"settings": "Fig 4b, […], 10 mg/kg b.i.d., Time 0.5"}, "[7]": {"settings": "Fig 4b, […], 10 mg/kg b.i.d., Time 1.0"}, "[8]": {"settings": "Fig 4b, […], 10 mg/kg b.i.d., Time 1.5"}, "[9]": {"settings": "Fig 4b, […], 10 mg/kg b.i.d., Time 2.0"}, "[10]": {"settings": "Fig 4b, […], 10 mg/kg b.i.d., Time 2.5"}, "[11]": {"settings": "Fig 4b, […], 10 mg/kg b.i.d., Time 3.0"}, "[12]": {"settings": "Fig 4b, […], 10 mg/kg b.i.d., Time 3.5"}, "[13]": {"settings": "Fig 4b, […], 10 mg/kg b.i.d., Time 4.0"}, "[14]": {"settings": "Fig 4b, […], 10 mg/kg b.i.d., all 9 time points"}, "[15]": {"settings": "headed Fig 3c, […], 10 mg/kg b.i.d., Time 0"}, "[16]": {"settings": "headed Fig 3c, […], 10 mg/kg b.i.d., Time 1"}, "[17]": {"settings": "headed Fig 3c, […], 10 mg/kg b.i.d., Time 2"}, "[18]": {"settings": "headed Fig 3c, […], 10 mg/kg b.i.d., Time 3"}, "[19]": {"settings": "headed Fig 3c, […], 10 mg/kg b.i.d., Time 4"}, "[20]": {"settings": "headed Fig 3c, […], 10 mg/kg b.i.d., all 5 time points"}}, "note": "Values joined by “and” are separate entries in the source; they are usually repeats but may differ in a detail not shown here. Equal entries are not always repeated. Where two headings read alike, the source gives them in different places. Wherever Transform of Nasal Lavage RNA copies, Mean 2 (treated group) is given: unit not given here. Wherever Transform of Nasal Lavage RNA copies, Mean Diff. (Vehicle vs. treated) is given: unit not given here.", "data": [{"smiles": "CC(C)C(=O)OCC1OC(C#N)(c2ccc3c(N)ncnn23)C(OC(=O)C(C)C)C1OC(=O)C(C)C", "note": "(stereo not drawn) [GS-621763]", "values": [{"measurement": "Transform of Nasal Lavage RNA copies, Mean 2 (treated group)", "setting": "[1]; 3mg/kg b.i.d.", "result": 5.662}, {"measurement": "Transform of Nasal Lavage RNA copies, Mean Diff. (Vehicle vs. treated)", "setting": "[1]; 3mg/kg b.i.d.", "result": 0.07178}, {"measurement": "Transform of Nasal Lavage RNA copies, Mean 2 (treated group)", "setting": "[1]; 10mg/kg b.i.d.", "result": 3.751}, {"measurement": "Transform of Nasal Lavage RNA copies, Mean Diff. (Vehicle vs. treated)", "setting": "[1]; 10mg/kg b.i.d.", "result": 1.983}, {"measurement": "reduction of virus burden in the turbinates", "setting": "[1]; in vivo", "result": "one order of magnitude"}, {"measurement": "viral RNA copies in nasal lavages and turbinates vs vehicle", "setting": "[1]; in vivo", "result": "statistically significant mean reduction"}, {"measurement": "virus burden in the turbinates", "setting": "[1]; in vivo", "result": "approached the limit of detection"}, {"measurement": "virus load in nasal lavages vs vehicle", "setting": "[1]; in vivo", "result": "approximately one order of magnitude lower"}, {"measurement": "virus shedding in nasal lavages", "setting": "[1]; in vivo", "result": "near-detection level"}, {"measurement": "% cell viability", "setting": "[2]; 0.046 µM", "result": "88% and 92%"}, {"measurement": "% cell viability", "setting": "[2]; 1.235 µM", "result": 112, "unit": "%"}, {"measurement": "% cell viability", "setting": "[2]; 3.704 µM", "result": 115, "unit": "%"}, {"measurement": "% cell viability", "setting": "[2]; 33.333 µM", "result": "86% and 83%"}, {"measurement": "CC50", "setting": "[2]; “M2” HAE", "result": 39.7, "unit": "µM"}, {"measurement": "Nasal lavage titer, Mean Diff. Vehicle - GS-621763", "setting": "[3]; [5]", "result": 0}, {"measurement": "Nasal lavage titer, group mean (Mean 2; Transform of Brazil - Nasal Lavage Titer)", "setting": "[3]; [5]", "result": 0.699}, {"measurement": "Nasal lavage titer, Mean Diff. Vehicle - GS-621763", "setting": "[3]; [6]", "result": 0}, {"measurement": "Nasal lavage titer, group mean (Mean 2; Transform of Brazil - Nasal Lavage Titer)", "setting": "[3]; [6]", "result": 0.699}, {"measurement": "Nasal lavage titer, Mean Diff. Vehicle - GS-621763", "setting": "[3]; [7]", "result": 0}, {"measurement": "Nasal lavage titer, group mean (Mean 2; Transform of Brazil - Nasal Lavage Titer)", "setting": "[3]; [7]", "result": 0.699}, {"measurement": "Nasal lavage titer, Mean Diff. Vehicle - GS-621763", "setting": "[3]; [8]", "result": 0.7768}, {"measurement": "Nasal lavage titer, group mean (Mean 2; Transform of Brazil - Nasal Lavage Titer)", "setting": "[3]; [8]", "result": 0.699}, {"measurement": "Nasal lavage titer, Mean Diff. Vehicle - GS-621763", "setting": "[3]; [9]", "result": 1.969}, {"measurement": "Nasal lavage titer, group mean (Mean 2; Transform of Brazil - Nasal Lavage Titer)", "setting": "[3]; [9]", "result": 0.8495}, {"measurement": "Nasal lavage titer, Mean Diff. Vehicle - GS-621763", "setting": "[3]; [10]", "result": 2.801}, {"measurement": "Nasal lavage titer, group mean (Mean 2; Transform of Brazil - Nasal Lavage Titer)", "setting": "[3]; [10]", "result": 0.7742}, {"measurement": "Nasal lavage titer, Mean Diff. Vehicle - GS-621763", "setting": "[3]; [11]", "result": 2.882}, {"measurement": "Nasal lavage titer, group mean (Mean 2; Transform of Brazil - Nasal Lavage Titer)", "setting": "[3]; [11]", "result": 0.7742}, {"measurement": "Nasal lavage titer, Mean Diff. Vehicle - GS-621763", "setting": "[3]; [12]", "result": 2.92}, {"measurement": "Nasal lavage titer, group mean (Mean 2; Transform of Brazil - Nasal Lavage Titer)", "setting": "[3]; [12]", "result": 0.699}, {"measurement": "Nasal lavage titer, Mean Diff. Vehicle - GS-621763", "setting": "[3]; [13]", "result": 2.821}, {"measurement": "Nasal lavage titer, group mean (Mean 2; Transform of Brazil - Nasal Lavage Titer)", "setting": "[3]; [13]", "result": 0.699}, {"measurement": "Nasal lavage titer, column mean of GS-621763 over all times", "setting": "[3]; [14]", "result": 0.7324}, {"measurement": "Nasal lavage titer, difference between column means (Vehicle - GS-621763)", "setting": "[3]; [14]", "result": 1.574}, {"measurement": "Nasal turbinate RNA, Mean Diff. Vehicle vs. GS-621763", "setting": "[3]; Fig 4e, […], 10 mg/kg b.i.d.", "result": 3.96}, {"measurement": "Nasal turbinate RNA, group mean of GS-621763-treated source animals (Transform of Brazil - Nasal Turbinate RNA)", "setting": "[3]; Fig 4e, […], 10 mg/kg b.i.d.", "result": 5.208}, {"measurement": "Turbinate titers, Mean Diff. Vehicle vs. GS-621763", "setting": "[3]; Fig 4d, […], 10 mg/kg b.i.d.", "result": 3.511}, {"measurement": "Turbinate titers, group mean of GS-621763-treated source animals (Transform of Brazil - Turbinate Titers)", "setting": "[3]; Fig 4d, […], 10 mg/kg b.i.d.", "result": 0.9542}, {"measurement": "Nasal lavage RNA, Mean Diff. Vehicle - GS-621763", "setting": "[3]; [15]", "result": 0}, {"measurement": "Nasal lavage RNA, group mean (Mean 2; Transform of Brazil - Nasal Lavage RNA)", "setting": "[3]; [15]", "result": 0}, {"measurement": "Nasal lavage RNA, Mean Diff. Vehicle - GS-621763", "setting": "[3]; [16]", "result": 0.6874}, {"measurement": "Nasal lavage RNA, group mean (Mean 2; Transform of Brazil - Nasal Lavage RNA)", "setting": "[3]; [16]", "result": 2.265}, {"measurement": "Nasal lavage RNA, Mean Diff. Vehicle - GS-621763", "setting": "[3]; [17]", "result": 3.062}, {"measurement": "Nasal lavage RNA, group mean (Mean 2; Transform of Brazil - Nasal Lavage RNA)", "setting": "[3]; [17]", "result": 2.426}, {"measurement": "Nasal lavage RNA, Mean Diff. Vehicle - GS-621763", "setting": "[3]; [18]", "result": 4.178}, {"measurement": "Nasal lavage RNA, group mean (Mean 2; Transform of Brazil - Nasal Lavage RNA)", "setting": "[3]; [18]", "result": 2.173}, {"measurement": "Nasal lavage RNA, Mean Diff. Vehicle - GS-621763", "setting": "[3]; [19]", "result": 3.536}, {"measurement": "Nasal lavage RNA, group mean (Mean 2; Transform of Brazil - Nasal Lavage RNA)", "setting": "[3]; [19]", "result": 2.653}, {"measurement": "Nasal lavage RNA, column mean of GS-621763 over all times", "setting": "[3]; [20]", "result": 1.903}, {"measurement": "Nasal lavage RNA, difference between column means (Vehicle - GS-621763)", "setting": "[3]; [20]", "result": 2.293}, {"measurement": "Infectious virus titer in nasal lavage (Fig 4B)", "setting": "[3]; in vivo, 10 mg/kg", "result": "5 pfu and 10 pfu"}, {"measurement": "SARS-CoV-2 RNA copies in lungs (Fig 4G)", "setting": "[3]; in vivo, 10 mg/kg", "result": "not detected"}, {"measurement": "lowering of viral RNA copies in nasal lavages and turbinates", "setting": "[3]; in vivo, po, 10 mg/kg", "result": "over three orders of magnitude"}, {"measurement": "shed virus burden and tissue titers", "setting": "[3]; in vivo, po, 10 mg/kg", "result": "undetectable levels"}, {"measurement": "viability at 72 h, 0.046 µM", "setting": "[4]; BHK-21, 0.046 µM", "result": 89, "unit": "%"}, {"measurement": "viability at 72 h, 1.235 µM", "setting": "[4]; BHK-21, 1.235 µM", "result": 89, "unit": "%"}, {"measurement": "viability at 72 h, 33.333 µM", "setting": "[4]; BHK-21, 33.333 µM", "result": 103, "unit": "%"}]}]}
